pIC50: −log10 of the molar value.
Test: Anticancer human tumor 997537-175-T-J1-PDC patient-derived colon adenocarcinoma cell line growth inhibition [POLQ]
Conditions: 997537-175-T-J1-PDC complex spheroid viability, combination with POLQ inhibitors; for pIC50: curve of first compound; for viability, T/C: stronger effect = lower value
Method in brief: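 Growth inhibition in 3D: complex spheroids (tumor PDC, HUVEC, MSC) treated with POLQ inhibitor combinations; where Cmax unknown, highest tested concentration 10 microM, except SN-38 at 1 microM.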

[1] = second compound 0.0316 µM, first compound 0.0316 µM
[2] = second compound 0.0316 µM, first compound 0.1 µM
[3] = second compound 0.0316 µM, first compound 0.316 µM
[4] = second compound 0.0316 µM, first compound 1 µM
[5] = second compound 0.0316 µM, first compound 3.16 µM
[6] = second compound 0.0316 µM, first compound 10 µM
[7] = second compound 0.1 µM, first compound 0.0316 µM
[8] = second compound 0.1 µM, first compound 0.1 µM
[9] = second compound 0.1 µM, first compound 0.316 µM
[10] = second compound 0.1 µM, first compound 1 µM
[11] = second compound 0.1 µM, first compound 3.16 µM
[12] = second compound 0.1 µM, first compound 10 µM
[13] = second compound 0.316 µM, first compound 0.0316 µM
[14] = second compound 0.316 µM, first compound 0.1 µM
[15] = second compound 0.316 µM, first compound 0.316 µM
[16] = second compound 0.316 µM, first compound 1 µM
[17] = second compound 0.316 µM, first compound 3.16 µM
[18] = second compound 0.316 µM, first compound 10 µM
[19] = second compound 1 µM, first compound 0.0316 µM
[20] = second compound 1 µM, first compound 0.1 µM
[21] = second compound 1 µM, first compound 0.316 µM
[22] = second compound 1 µM, first compound 1 µM
[23] = second compound 1 µM, first compound 3.16 µM
[24] = second compound 1 µM, first compound 10 µM
[25] = second compound 3.16 µM, first compound 0.0316 µM
[26] = second compound 3.16 µM, first compound 0.1 µM
[27] = second compound 3.16 µM, first compound 0.316 µM
[28] = second compound 3.16 µM, first compound 1 µM
[29] = second compound 3.16 µM, first compound 3.16 µM
[30] = second compound 3.16 µM, first compound 10 µM
[31] = second compound 10 µM, first compound 0.0316 µM
[32] = second compound 10 µM, first compound 0.1 µM
[33] = second compound 10 µM, first compound 0.316 µM
[34] = second compound 10 µM, first compound 1 µM
[35] = second compound 10 µM, first compound 3.16 µM
[36] = second compound 10 µM, first compound 10 µM
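Further: luminescence signal used as a surrogate for viable cells; spheroids exposed to drugs for seven days before readout.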

Structure (SMILES): CC1COCCN1c1cc(-c2ccnn2C)c2ccnc(-c3ccn[nH]3)c2n1 (stereo not drawn) + Nc1ccc(C#CCN(C(=O)Cc2ncc(C(F)(F)F)cc2C(F)(F)F)c2ccc(F)cc2)nn1
- pIC50 (second compound 0.0316 µM): < 5.00
- pIC50 (second compound 0.1 µM): 5.50
- pIC50 (second compound 0.316 µM): < 5.00
- pIC50 (second compound 1 µM): < 5.00
- pIC50 (second compound 3.16 µM): 5.50
- pIC50 (second compound 10 µM): 6.52
- viability, T/C [1]: 103%
- viability, T/C [2]: 83.6%
- viability, T/C [3]: 58.3%
- viability, T/C [4]: 49.4%
- viability, T/C [5]: 36.8%
- viability, T/C [6]: 71.6%
- viability, T/C [7]: 101%
- viability, T/C [8]: 92.2%
- viability, T/C [9]: 38.2%
- viability, T/C [10]: 49.5%
- viability, T/C [11]: 48.3%
- viability, T/C [12]: 69.6%
- viability, T/C [13]: 99.1%
- viability, T/C [14]: 90.6%
- viability, T/C [15]: 51.4%
- viability, T/C [16]: 42.5%
- viability, T/C [17]: 52%
- viability, T/C [18]: 65.8%
- viability, T/C [19]: 93.1%
- viability, T/C [20]: 76.1%
- viability, T/C [21]: 39.4%
- viability, T/C [22]: 75.2%
- viability, T/C [23]: 50%
- viability, T/C [24]: 53.4%
- viability, T/C [25]: 99.2%
- viability, T/C [26]: 84.3%
- viability, T/C [27]: 36%
- viability, T/C [28]: 28.6%
- viability, T/C [29]: 52.5%
- viability, T/C [30]: 82%
- viability, T/C [31]: 83.5%
- viability, T/C [32]: 75.3%
- viability, T/C [33]: 39.2%
- viability, T/C [34]: 32.5%
- viability, T/C [35]: 57.5%
- viability, T/C [36]: 67.5%

Structure (SMILES): COc1ccc([C@@H](O)c2cc(-c3ncnc4cc(N5CCOCC5)ccc34)c(F)cc2Cl)nn1 + Nc1ccc(C#CCN(C(=O)Cc2ncc(C(F)(F)F)cc2C(F)(F)F)c2ccc(F)cc2)nn1
- pIC50 (second compound 0.0316 µM): < 5.00
- pIC50 (second compound 0.1 µM): < 5.00
- pIC50 (second compound 0.316 µM): < 5.00
- pIC50 (second compound 1 µM): < 5.00
- pIC50 (second compound 3.16 µM): < 5.00
- pIC50 (second compound 10 µM): < 5.00
- viability, T/C [1]: 95%
- viability, T/C [2]: 110%
- viability, T/C [3]: 100%
- viability, T/C [4]: 101%
- viability, T/C [5]: 85%
- viability, T/C [6]: 74.3%
- viability, T/C [7]: 98.8%
- viability, T/C [8]: 110%
- viability, T/C [9]: 99%
- viability, T/C [10]: 98.3%
- viability, T/C [11]: 71.5%
- viability, T/C [12]: 71%
- viability, T/C [13]: 110%
- viability, T/C [14]: 109%
- viability, T/C [15]: 91%
- viability, T/C [16]: 99.1%
- viability, T/C [17]: 96.1%
- viability, T/C [18]: 65.6%
- viability, T/C [19]: 96%
- viability, T/C [20]: 98.2%
- viability, T/C [21]: 94.7%
- viability, T/C [22]: 91.6%
- viability, T/C [23]: 79.3%
- viability, T/C [24]: 94.2%
- viability, T/C [25]: 107%
- viability, T/C [26]: 99.1%
- viability, T/C [27]: 96.7%
- viability, T/C [28]: 96.6%
- viability, T/C [29]: 87.6%
- viability, T/C [30]: 82.1%
- viability, T/C [31]: 99.5%
- viability, T/C [32]: 107%
- viability, T/C [33]: 95.7%
- viability, T/C [34]: 95.8%
- viability, T/C [35]: 85.3%
- viability, T/C [36]: 92.7%

Structure (SMILES): O=C(Nc1ccc(O)c(NS(=O)(=O)c2ccc(F)cc2)c1)c1ccc(-c2ccccc2)cc1 + COC1C(OC(N)=O)C(O)C(Oc2ccc3c(O)c(NC(=O)c4ccc(O)c(CC=C(C)C)c4)c(=O)oc3c2C)OC1(C)C
- pIC50 (second compound 0.0316 µM): < 5.00
- pIC50 (second compound 0.1 µM): < 5.00
- pIC50 (second compound 0.316 µM): < 5.00
- pIC50 (second compound 1 µM): < 5.00
- pIC50 (second compound 3.16 µM): < 5.00
- pIC50 (second compound 10 µM): < 5.00
- viability, T/C [1]: 98.4%
- viability, T/C [2]: 109%
- viability, T/C [3]: 104%
- viability, T/C [4]: 103%
- viability, T/C [5]: 102%
- viability, T/C [6]: 97.3%
- viability, T/C [7]: 112%
- viability, T/C [8]: 94.4%
- viability, T/C [9]: 97%
- viability, T/C [10]: 88.8%
- viability, T/C [11]: 96%
- viability, T/C [12]: 95.1%
- viability, T/C [13]: 108%
- viability, T/C [14]: 102%
- viability, T/C [15]: 105%
- viability, T/C [16]: 96%
- viability, T/C [17]: 102%
- viability, T/C [18]: 97.3%
- viability, T/C [19]: 98.3%
- viability, T/C [20]: 98.7%
- viability, T/C [21]: 86%
- viability, T/C [22]: 94%
- viability, T/C [23]: 93.9%
- viability, T/C [24]: 99.3%
- viability, T/C [25]: 97.5%
- viability, T/C [26]: 93.2%
- viability, T/C [27]: 91.8%
- viability, T/C [28]: 90.2%
- viability, T/C [29]: 97.5%
- viability, T/C [30]: 98.8%
- viability, T/C [31]: 93.6%
- viability, T/C [32]: 95.7%
- viability, T/C [33]: 109%
- viability, T/C [34]: 91.5%
- viability, T/C [35]: 102%
- viability, T/C [36]: 91.5%

Structure (SMILES): CCc1cc2c(N3CCc4c(cc(Cn5ccnc5)cc4-c4cn(C)nc4C(F)(F)F)C3=O)ccnc2c(OC)n1 + COC1C(OC(N)=O)C(O)C(Oc2ccc3c(O)c(NC(=O)c4ccc(O)c(CC=C(C)C)c4)c(=O)oc3c2C)OC1(C)C
- pIC50 (second compound 0.0316 µM): < 5.00
- pIC50 (second compound 0.1 µM): < 5.00
- pIC50 (second compound 0.316 µM): < 5.00
- pIC50 (second compound 1 µM): < 5.00
- pIC50 (second compound 3.16 µM): < 5.00
- pIC50 (second compound 10 µM): < 5.00
- viability, T/C [1]: 101%
- viability, T/C [2]: 107%
- viability, T/C [3]: 83%
- viability, T/C [4]: 86%
- viability, T/C [5]: 93.8%
- viability, T/C [6]: 57%
- viability, T/C [7]: 108%
- viability, T/C [8]: 106%
- viability, T/C [9]: 94.6%
- viability, T/C [10]: 98.5%
- viability, T/C [11]: 98.4%
- viability, T/C [12]: 52.3%
- viability, T/C [13]: 97%
- viability, T/C [14]: 104%
- viability, T/C [15]: 103%
- viability, T/C [16]: 95.7%
- viability, T/C [17]: 61.9%
- viability, T/C [18]: 52.1%
- viability, T/C [19]: 113%
- viability, T/C [20]: 83.3%
- viability, T/C [21]: 71.3%
- viability, T/C [22]: 93.8%
- viability, T/C [23]: 69%
- viability, T/C [24]: 52.3%
- viability, T/C [25]: 106%
- viability, T/C [26]: 99%
- viability, T/C [27]: 91.9%
- viability, T/C [28]: 76.5%
- viability, T/C [29]: 70%
- viability, T/C [30]: 64.8%
- viability, T/C [31]: 110%
- viability, T/C [32]: 89.5%
- viability, T/C [33]: 93.2%
- viability, T/C [34]: 92.1%
- viability, T/C [35]: 55.6%
- viability, T/C [36]: 58.6%

Reference: PubChem BioAssay AID1963825 (Molecular Pharmacology Branch, DTP, NCI, 2024)
